Reference: PubChem BioAssay (NCI)
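Cultured in 96-well plates, cells were exposed to test compound for 48 hours across five concentrations. Here, GI50 denotes the concentration required for 50% inhibition of growth. Definition used: TGI = concentration required for complete inhibition of growth.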

Experiments:
Assay in all cases: NCI-60 cell line screen, 48 h
TK-10 renal = system: TK-10 renal
OVCAR-4 ovarian = system: OVCAR-4 ovarian
DU-145 prostate = system: DU-145 prostate
RXF 393 renal = system: RXF 393 renal
HT29 colon = system: HT29 colon
NCI-H226 lung = system: NCI-H226 lung
ACHN renal = system: ACHN renal
MOLT-4 leukemia = system: MOLT-4 leukemia
LOX IMVI melanoma = system: LOX IMVI melanoma
NCI-H23 lung = system: NCI-H23 lung
A549 NSCLC = system: A549 NSCLC
SF-295 CNS = system: SF-295 CNS
M14 melanoma = system: M14 melanoma
A498 renal = system: A498 renal
OVCAR-8 ovarian = system: OVCAR-8 ovarian
HCC-2998 colon = system: HCC-2998 colon
MALME-3M melanoma = system: MALME-3M melanoma
OVCAR-5 ovarian = system: OVCAR-5 ovarian
HOP-92 NSCLC = system: HOP-92 NSCLC
UO-31 renal = system: UO-31 renal
BT-549 breast = system: BT-549 breast
SNB-75 CNS = system: SNB-75 CNS
K-562 leukemia = system: K-562 leukemia
MCF7 breast = system: MCF7 breast
RPMI-8226 leukemia = system: RPMI-8226 leukemia
NCI-H522 lung = system: NCI-H522 lung
SR leukemia = system: SR leukemia
HCT-15 colon = system: HCT-15 colon
SK-OV-3 ovarian = system: SK-OV-3 ovarian
MDA-MB-231 breast = system: MDA-MB-231 breast
OVCAR-3 ovarian = system: OVCAR-3 ovarian
NCI/ADR-RES ovarian = system: NCI/ADR-RES ovarian
CAKI-1 renal = system: CAKI-1 renal
HS 578T breast = system: HS 578T breast
SK-MEL-28 melanoma = system: SK-MEL-28 melanoma
SN12C renal = system: SN12C renal
PC-3 prostate = system: PC-3 prostate
SW-620 colon = system: SW-620 colon
SK-MEL-2 melanoma = system: SK-MEL-2 melanoma
HCT-116 colon = system: HCT-116 colon
CCRF-CEM leukemia = system: CCRF-CEM leukemia
MDA-MB-435 = system: MDA-MB-435
KM12 colon = system: KM12 colon
HL-60(TB) leukemia = system: HL-60(TB) leukemia
IGROV1 ovarian = system: IGROV1 ovarian
786-0 renal = system: 786-0 renal
HOP-62 NSCLC = system: HOP-62 NSCLC
COLO 205 colon = system: COLO 205 colon
SF-268 CNS = system: SF-268 CNS
SK-MEL-5 melanoma = system: SK-MEL-5 melanoma
NCI-H460 lung = system: NCI-H460 lung
UACC-257 melanoma = system: UACC-257 melanoma
EKVX NSCLC = system: EKVX NSCLC
T-47D breast = system: T-47D breast
U251 CNS = system: U251 CNS
SF-539 CNS = system: SF-539 CNS
UACC-62 melanoma = system: UACC-62 melanoma
SNB-19 CNS = system: SNB-19 CNS

Clc1nc(Oc2ccccc2)nc(-c2cn(-c3ccccc3)c3ccccc23)n1
GI50 (TK-10 renal): 28.7 µM
TGI (TK-10 renal): 67.1 µM
GI50 (OVCAR-4 ovarian): 6.4 µM
TGI (OVCAR-4 ovarian): 18.7 µM
GI50 (DU-145 prostate): 8.6 µM
TGI (DU-145 prostate): 21.8 µM
GI50 (RXF 393 renal): 3.8 µM
TGI (RXF 393 renal): 10.7 µM
GI50 (HT29 colon): 3.36 µM
TGI (HT29 colon): 11.5 µM
GI50 (NCI-H226 lung): 33.5 µM
TGI (NCI-H226 lung): > 62.2 µM
GI50 (ACHN renal): 8.16 µM
TGI (ACHN renal): 21.1 µM
GI50 (MOLT-4 leukemia): 0.79 µM
TGI (MOLT-4 leukemia): 21.9 µM
GI50 (LOX IMVI melanoma): 2.44 µM
TGI (LOX IMVI melanoma): 5.93 µM
GI50 (NCI-H23 lung): 7.31 µM
TGI (NCI-H23 lung): 22.4 µM
GI50 (A549 NSCLC): 27.4 µM
TGI (A549 NSCLC): > 67.4 µM
GI50 (SF-295 CNS): > 44.7 µM
TGI (SF-295 CNS): > 61 µM
GI50 (M14 melanoma): 5.32 µM
TGI (M14 melanoma): 17.1 µM
GI50 (A498 renal): > 47.6 µM
TGI (A498 renal): > 100 µM
GI50 (OVCAR-8 ovarian): 3.25 µM
TGI (OVCAR-8 ovarian): 11 µM
GI50 (HCC-2998 colon): 13.8 µM
TGI (HCC-2998 colon): 27.3 µM
GI50 (MALME-3M melanoma): 1.89 µM
TGI (MALME-3M melanoma): 4.82 µM
GI50 (OVCAR-5 ovarian): 22.9 µM
TGI (OVCAR-5 ovarian): 52.7 µM
GI50 (HOP-92 NSCLC): 4.07 µM
TGI (HOP-92 NSCLC): 20.7 µM
GI50 (UO-31 renal): 3.04 µM
TGI (UO-31 renal): 7.95 µM
GI50 (BT-549 breast): 17 µM
TGI (BT-549 breast): 35.6 µM
GI50 (SNB-75 CNS): 13.7 µM
TGI (SNB-75 CNS): 26.6 µM
GI50 (K-562 leukemia): 0.4 µM
TGI (K-562 leukemia): 18.1 µM
GI50 (MCF7 breast): 11.6 µM
TGI (MCF7 breast): 32.5 µM
GI50 (RPMI-8226 leukemia): 3.29 µM
TGI (RPMI-8226 leukemia): 21.5 µM
GI50 (NCI-H522 lung): 1.88 µM
TGI (NCI-H522 lung): 3.88 µM
GI50 (SR leukemia): 0.241 µM
TGI (SR leukemia): 0.849 µM
GI50 (HCT-15 colon): 5.38 µM
TGI (HCT-15 colon): 18 µM
GI50 (SK-OV-3 ovarian): 18.9 µM
TGI (SK-OV-3 ovarian): 40.3 µM
GI50 (MDA-MB-231 breast): 5.33 µM
TGI (MDA-MB-231 breast): 15.7 µM
GI50 (OVCAR-3 ovarian): 3.37 µM
TGI (OVCAR-3 ovarian): 10.2 µM
GI50 (NCI/ADR-RES ovarian): 17.8 µM
TGI (NCI/ADR-RES ovarian): 34.9 µM
GI50 (CAKI-1 renal): 5.69 µM
TGI (CAKI-1 renal): 12.9 µM
GI50 (HS 578T breast): 4.66 µM
TGI (HS 578T breast): 18.7 µM
GI50 (SK-MEL-28 melanoma): 3.92 µM
TGI (SK-MEL-28 melanoma): 12.1 µM
GI50 (SN12C renal): 6.18 µM
TGI (SN12C renal): 20.1 µM
GI50 (PC-3 prostate): 5.03 µM
TGI (PC-3 prostate): 19.3 µM
GI50 (SW-620 colon): 2.92 µM
TGI (SW-620 colon): 9.24 µM
GI50 (SK-MEL-2 melanoma): 4.66 µM
TGI (SK-MEL-2 melanoma): 18.5 µM
GI50 (HCT-116 colon): 3.64 µM
TGI (HCT-116 colon): 11.8 µM
GI50 (CCRF-CEM leukemia): 3.99 µM
TGI (CCRF-CEM leukemia): 20.3 µM
GI50 (MDA-MB-435): 6.49 µM
TGI (MDA-MB-435): 23.1 µM
GI50 (KM12 colon): 7.51 µM
TGI (KM12 colon): 19.9 µM
GI50 (HL-60(TB) leukemia): 0.773 µM
GI50 (IGROV1 ovarian): 2.45 µM
TGI (IGROV1 ovarian): 6.26 µM
GI50 (786-0 renal): 18.6 µM
TGI (786-0 renal): 35.6 µM
GI50 (HOP-62 NSCLC): 15.2 µM
TGI (HOP-62 NSCLC): 29.4 µM
GI50 (COLO 205 colon): 10.6 µM
TGI (COLO 205 colon): 24.6 µM
GI50 (SF-268 CNS): 4.28 µM
TGI (SF-268 CNS): 13.9 µM
GI50 (SK-MEL-5 melanoma): 14.3 µM
TGI (SK-MEL-5 melanoma): 30.5 µM
GI50 (NCI-H460 lung): 21.4 µM
TGI (NCI-H460 lung): > 71.7 µM
GI50 (UACC-257 melanoma): 9.2 µM
TGI (UACC-257 melanoma): 25 µM
GI50 (EKVX NSCLC): 14.6 µM
TGI (EKVX NSCLC): 46.9 µM
GI50 (T-47D breast): 8.58 µM
TGI (T-47D breast): 29.5 µM
GI50 (U251 CNS): 2.53 µM
TGI (U251 CNS): 6.36 µM
GI50 (SF-539 CNS): 16.1 µM
TGI (SF-539 CNS): 30 µM
GI50 (UACC-62 melanoma): 13.2 µM
TGI (UACC-62 melanoma): 26.6 µM
GI50 (SNB-19 CNS): 19 µM
TGI (SNB-19 CNS): 35.8 µM
